Our source for the mass density values is the NIST ThermoML archive (doi:10.1016/j.jct.2011.02.005).

± gives the expanded uncertainty stated by the source.

The term mass density denotes the mass of a sample divided by its volume.

A short description of this series: mn = molality of the nth substance listed, in mol/kg. As to conditions: 298.15 K, 101 kPa, Liquid, Vibrating tube method.

As to `O=C(O)CNCC(=O)O` [N-(carboxymethyl)glycine] + O, the mass density is, setting by setting: (m1 = 0.0499) 1000.08 ± 0.064 kg/m3; (m1 = 0.1004) 1002.85 ± 0.065 kg/m3; (m1 = 0.1501) 1005.55 ± 0.066 kg/m3; (m1 = 0.2) 1008.22 ± 0.067 kg/m3; (m1 = 0.2492) 1010.83 ± 0.068 kg/m3; (m1 = 0.2995) 1013.46 ± 0.069 kg/m3. Besides, the mass density is listed as 1016.13 ± 0.07 kg/m3 (m1 = 0.3512); 1018.57 ± 0.071 kg/m3 (m1 = 0.3991); 1021.04 ± 0.072 kg/m3 (m1 = 0.4485); 1023.68 ± 0.074 kg/m3 (m1 = 0.5013); 1026.15 ± 0.075 kg/m3 (m1 = 0.5509); 1028.49 ± 0.076 kg/m3 (m1 = 0.5987).
For the molecule `OC[C@@H](O)[C@H](O)[C@@H](O)CO` [xylitol] + O, the mass density came out at 1006.8 ± 0.067 kg/m3 (m1 = 0.1998); 1013.81 ± 0.07 kg/m3 (m1 = 0.35); 1020.47 ± 0.073 kg/m3 (m1 = 0.4985); 1027.38 ± 0.077 kg/m3 (m1 = 0.6496); 1033.72 ± 0.08 kg/m3 (m1 = 0.7999); 1039.84 ± 0.084 kg/m3 (m1 = 0.95).
